Here are results for one compound from patent publication US20140199380A1, “PHARMACEUTICAL COMPOSITION COMPRISING AN ALGAE ADAPTED TO INCREASE THE EFFICACY OF AN ENZYMATIC INHIBITOR” (priority 2010, published 2014).

The conditions of series [1]: tadalafil as normally administered, typical value; cited from earlier work.
Series [2] is described as follows: Plasma concentration of Tadalafil after a single dose (pharmacokinetics, FIG. 1). The conditions noted are these: male, human, in vivo, 20 mg.
Description: In both cases, a single dose of a pharmaceutical composition equivalent to 20 mg of tadalafil was administered to a test population of otherwise healthy subjects suffering from ED and the plasma concentration of Tadalafil was measured at intervals following the administration.

Each structure is given as a SMILES string.

Regarding `CN1CC(=O)N2[C@H](c3ccc4c(c3)OCO4)c3[nH]c4ccccc4c3C[C@@H]2C1=O` [Tadalafil, (6R,12aR)-6-(1,3-benzodioxol-5-yl)-2,3,6,7,12,12a-hexahydro-2-methylpyrazino[1′,2′:1,6]pyrido[3,4-b]indole-1,4-dione], the “Half-life in the body” value in series [1] was 17.5 h. Moreover, the half-life in series [2] is 17.5 h.

For orientation: half-life means how long it takes for the measured level to halve. Low readings indicate fast loss, high ones slow loss.
